# In patent US20090163409A1, “Trappin-2 (elafin) inhibits HIV” (priority 2005, published 2009):
# “Also recorded” adds a separate entry of the source. Where no end group is shown, it is not given here.
# B1: SLP-I: protease inhibitor and member of the antileukoprotease superfamily, first isolated from human saliva (protein, UniProt P03973 26-132, looked up)
# Antileukoproteinase: SGKSFKAGVCPPKKSAQCLRYKKPECQSDWQCPGKKRCCPDTCGIKCLDPVDTPNPTRRKPGKCPVTYGQCLMLNPPNFCEMDGQCKRDLKCCMGMCGKSCVSPVKA
# What was measured:
# MT4 cells = experiment: Cytokine responses of MT4 cells after treatment with trappin-2; assay type: cell-based
# Method: (§1) Finally, the ability of trappin-2 (6.0 kDa form) to inhibit HIV infection in an established HIV infection model was examined. A highly infectable T cell line (MT4) was used to assay the effect of trappin-2 inhibition on HIV HxBc2 replication 13,14,15. HIV inhibition experiments were performed by preincubating trappin-2 with either the virus, or target cells. […] In our in vitro system a 5 fold increase in trappin-2 (FIG. 4b) had significant effects on HIV replication. Trappin-2 has previously been reported to have immunomodulatory effects and thus its influence on immune regulation is of interest. To determine if the HIV inhibitory effects of trappin-2 are the result of induction of anti-viral cytokines such as IFN-γ, cytokine responses of MT4 cells after treatment with trappin-2 were measured.
# HIV HxBc2 = HIV HxBc2 viral replication in MT4 cells (RT activity in supernatants, p24 western blot); assay type: cell-based
# Method: FIG. 4. Trappin-2 inhibits HIV viral replication in an in vitro system. A) We tested HIV HxBc2 in an established viral replication model system and measured the effect of pretreatment of recombinant human trappin-2 (6.0 kDa form) on cells in viral infection 15,19. Briefly, 1 or 5 ug/mL of trappin-2 was incubated with MT4 cells for 1 hour. Then equivalent amounts of virus (0.02 cpm/cell) were added to the cells in the presence of trappin-2 for 2 hours. Infected cells were washed and cultured in the absence of trappin-2. As a control, 10 uM of AZT was used. Viral production in supernatants was evaluated by RT activity after 6 days of culture. […] B) The experiment was repeated with an additional assay of trappin-2 preincubated with cells and subsequently supplemented into the culture media (lane 6). Supernatants were harvested at Day 6 of infection and assayed for both RT activity and western blot analysis for HIV p24. Error bars are mean±SEM.
# as §1
# [1] = system: macrophage tropic (R5) HIV; conditions: macrophage tropic (R5) viruses; cited from earlier work
# T cell tropic (X4) HIV = conditions: T cell tropic (X4) viruses; cited from earlier work
Molecule,induction of cytokines (anti-viral cytokines such as IFN-γ) (MT4 cells),"HIV viral replication (RT activity in supernatants) (HIV HxBc2; MT4 cells pretreated 1 hour with 1 or 5 ug/mL trappin-2 (physiological concentrations), virus 2 hours, washed, cultured without trappin-2, day 6)","inhibition of HIV replication (HIV HxBc2; simultaneous addition of trappin-2 and virus to target cells, compared with 1-hour pre-exposure)","HIV viral replication (RT activity, p24 western blot) (HIV HxBc2; trappin-2 preincubated 1 hour with cells and added back into the culture media, day 6)",inhibition of HIV infection of macrophage cells [1],prevention of infection of T cells (T cell tropic (X4) HIV)
"trappin-2: recombinant human trappin-2 (6.0 kDa form), serine protease inhibiter of the Trappin family, also known as elafin/SKALP (AQEPVKGPVSTKPGSCPIILIRCAMLNPPNRCLKDTDCPGIKKCCEGSCGMACFVPQ; not fully specified (bridges); also: four disulfide bridges, pairing not given here; UniProt P19957 61-117, looked up)",No induction of cytokines was detected,greatly reduced HIV viral replication in a dose dependent manner; also recorded: significantly reduced virus replication,significantly less inhibition,even more dramatic decrease in viral replication,,
B1,,,,,inhibit HIV infection of macrophage cells,does not prevent infection of T cells
